26 molecules from patent US11807650B2, “NMDA receptor modulators and uses thereof” (Novartis AG, priority 2016, dated 2023) can be followed below.

This test deals with T1, human GRIN1 (transcript variant NR1-3) and GRIN2D expressed in Xenopus oocytes (Homo sapiens, UniProt O15399).
T1 construct: GenScript (GRIN2D synthesis) SC115601; host or cells: Xenopus oocytes injected with cRNA (1 GluN1 : 2 GluN2)
T1 sequence (O15399 28-1336, other chains not shown): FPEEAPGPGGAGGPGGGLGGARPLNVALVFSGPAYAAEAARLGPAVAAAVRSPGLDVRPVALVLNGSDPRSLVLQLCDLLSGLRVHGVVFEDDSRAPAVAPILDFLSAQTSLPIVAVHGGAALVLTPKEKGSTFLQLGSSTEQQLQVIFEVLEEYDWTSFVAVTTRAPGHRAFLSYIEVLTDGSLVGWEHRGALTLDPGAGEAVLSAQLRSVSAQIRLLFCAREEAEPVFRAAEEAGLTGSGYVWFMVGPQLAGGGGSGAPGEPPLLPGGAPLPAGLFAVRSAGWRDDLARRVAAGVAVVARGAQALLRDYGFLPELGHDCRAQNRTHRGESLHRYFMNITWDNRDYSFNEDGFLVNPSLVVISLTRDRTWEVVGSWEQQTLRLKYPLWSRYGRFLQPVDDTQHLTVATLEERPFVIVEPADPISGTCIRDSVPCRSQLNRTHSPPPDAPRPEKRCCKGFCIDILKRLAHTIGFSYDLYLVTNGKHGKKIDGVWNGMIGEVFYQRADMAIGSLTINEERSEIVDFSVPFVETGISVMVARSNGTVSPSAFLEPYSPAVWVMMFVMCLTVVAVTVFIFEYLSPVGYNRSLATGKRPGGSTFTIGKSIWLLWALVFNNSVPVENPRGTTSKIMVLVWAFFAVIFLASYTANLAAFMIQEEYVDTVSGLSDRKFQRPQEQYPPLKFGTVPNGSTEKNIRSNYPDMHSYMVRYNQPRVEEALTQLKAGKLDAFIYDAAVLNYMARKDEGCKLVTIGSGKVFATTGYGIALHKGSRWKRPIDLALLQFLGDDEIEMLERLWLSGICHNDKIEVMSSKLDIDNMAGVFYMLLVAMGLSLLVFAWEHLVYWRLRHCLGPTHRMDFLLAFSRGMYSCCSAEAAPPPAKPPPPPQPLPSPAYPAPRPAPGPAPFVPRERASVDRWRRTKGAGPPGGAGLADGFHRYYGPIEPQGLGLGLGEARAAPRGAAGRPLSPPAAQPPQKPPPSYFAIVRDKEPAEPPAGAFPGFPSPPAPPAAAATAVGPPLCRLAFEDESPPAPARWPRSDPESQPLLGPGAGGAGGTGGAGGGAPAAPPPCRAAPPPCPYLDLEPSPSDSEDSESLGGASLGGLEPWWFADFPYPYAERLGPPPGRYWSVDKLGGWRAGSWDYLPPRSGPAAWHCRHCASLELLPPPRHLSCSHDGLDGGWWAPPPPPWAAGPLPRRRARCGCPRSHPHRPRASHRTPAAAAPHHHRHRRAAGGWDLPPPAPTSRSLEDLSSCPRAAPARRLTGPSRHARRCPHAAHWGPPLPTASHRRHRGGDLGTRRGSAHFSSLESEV
Kind of test: NR2D oocyte potentiation assay (two-electrode voltage clamp). It is filed as cell-based. As to conditions: 10 uM test compound; glutamate and glycine 10 μM each; holding potential −40 mV. As for the experimental part: NR2D Oocyte Potentiation Assay. Xenopus oocytes (Xenopus 1, Dexter, Mich.) were initially separated from the lobes of an ovary using surgical forceps; they were then defolliculated by constant agitation at room temperature in OR-2 buffer (82.5 mM NaCl; 2.5 mM KCl; 1 mM MgCl2; 5 mM HEPES; pH 7.4) containing 2 mg/ml collagenase Type 1 (Fisher Scientific, USA) for 1.5-2 hours. The cells were then gently aspirated with a Pasteur pipette to remove the follicular tissue; this was followed by washing three times with OR-2 to remove all traces of collagenase. The oocytes were then washed in ND-96 (96 mM NaCl, 2 mM KCl, 1.8 mM CaCl2, 1 mM MgCl2, 5 mM HEPES, 50 ng/L gentamycin, 100 units/ml penicillin and 100 μg/ml streptomycin; pH 7.6) three times and this was followed by incubation in ND-96 at room temperature with mild agitation for 15 minutes; subsequently they were stored for at least 2 hours at 16° C. before sorting and selection for injection. Oocytes selected for injection were incubated overnight in ND-96 at 16° C.
The human GRIN1 (transcript variant NR1-3 (Origene, SKU #: SC115601, Rockville, Md.) and GRIN2D (NCBI locus NM_000836, sequence optimized and synthesized by GenScript) were linearized and transcribed using the mMessage mMachine kit (Life Technologies) and promoters SP6 (for GluN1) and T7 (for GluN2D). cRNAs were mixed together at a ratio of 1 GluN1:2 GluN2. Each oocyte was injected with 50 nL of cRNA and stored in ND96 (96 mM NaCl, 2 mM KCl, 1.8 mM CaCl2, 1 mM MgCl2, 5 mM HEPES, 50 ng/L gentamycin, 100 units/ml penicillin and 100 μg/ml streptomycin; pH 7.6) at 16° C. for 72 h prior to recording.
Currents were recorded using a two-electrode voltage-clamp amplifier (Oocyte Clamp OC-725C; Warner Instrument Corp, Hamden, Conn.), and digitized using Digidata 1550A and pClamp (v. 10) software (Molecular Devices, Sunnyvale, Calif.). Electrodes were filled with 3 M KCl and had resistances that ranged from 0.2-1 MO. All measurements were made at a holding potential of −40 mV. Cells were continuously perfused with oocyte recording solution containing 90 mM NaCl, 1 mM KCl, 0.5 mM BaCl2, and 10 mM HEPES (Ph 7.4). Glutamate and Glycine (co-agonists) were applied at respective concentrations of 10 μM each. Co-agonists were applied until a plateau was reached, and test compounds were then added in the continued presence of co-agonists until a new plateau was reached. After the addition of the last test compound concentration, the oocyte was washed with oocyte recording buffer. Fraction of current remaining was calculated as [(current in presence of test compound−background current)/(co-agonist current−background current)] and IC50 values were computed using Prism 6.0 (Graphpad).
(Two-electrode voltage clamp holds a large cell at a set potential and records current.)
Regarding `C[C@@H]1CSc2nc(-c3cnc(C(C)(C)C)nc3)c(C#N)c(=O)n2C1` [Example 74, (S)-8-(2-(tert-butyl)pyrimidin-5-yl)-3-methyl-6-oxo-3,4-dihydro-2H,6H-pyrimido[2,1-b][1,3]thiazine-7-carbonitrile], the activation at 10 µM was 500 to 1000%.

In the case of `CC(C)(C)c1ncc(-c2nc3n(c(=O)c2C#N)CCCS3)cc1F` [Example 75, 8-(6-(tert-butyl)-5-fluoropyridin-3-yl)-6-oxo-3,4-dihydro-2H,6H-pyrimido[2,1-b][1,3]thiazine-7-carbonitrile], the activation at 10 µM is greater than 1000%.

Take `CC1CSc2nc(-c3cnc(C(C)(C)C)c(F)c3)c(C#N)c(=O)n2C1` (centres unmarked) [Example 76, 8-(6-(tert-butyl)-5-fluoropyridin-3-yl)-3-methyl-6-oxo-3,4-dihydro-2H,6H-pyrimido[2,1-b][1,3]thiazine-7-carbonitrile]: the activation at 10 µM is greater than 1000%.

Regarding `CC(C)(C)c1ccc(-c2nc3n(c(=O)c2C#N)CCCO3)cn1` [Example 77, 8-(6-(tert-butyl)pyridin-3-yl)-6-oxo-3,4-dihydro-2H,6H-pyrimido[2,1-b][1,3]oxazine-7-carbonitrile], the activation at 10 µM lay within 10 to 100%.

As for `CC(C)(C#N)c1ccc(-c2nc3n(c(=O)c2C#N)CCCS3)cn1` [Example 78, 8-(6-(2-cyanopropan-2-yl)pyridin-3-yl)-6-oxo-3,4-dihydro-2H,6H-pyrimido[2,1-b][1,3]thiazine-7-carbonitrile], the activation at 10 µM was 10 to 100%.

As for `CC1CSc2nc(-c3ccc(C(C)(C)C#N)nc3)c(C#N)c(=O)n2C1` (centres unmarked) [Example 79, 8-[6-(1-cyano-1-methylethyl)pyridin-3-yl]-3-methyl-6-oxo-2H,3H,4H,6H-pyrimido[2,1-b] [1,3]thiazine-7-carbonitrile], the activation at 10 µM was in the range of 100 to 500%.

In the case of `CC(C)C1CSc2nc(-c3ccc(C(C)(C)C)nc3)c(C#N)c(=O)n2C1` (centres unmarked) [Example 80, 8-(6-(tert-butyl)pyridin-3-yl)-3-isopropyl-6-oxo-3,4-dihydro-2H,6H-pyrimido[2,1-b][1,3]thiazine-7-carbonitrile], the activation at 10 µM lay in the range of 100 to 500%.

Regarding `CCC1CSc2nc(-c3ccc(C(C)(C)C)nc3)c(C#N)c(=O)n2C1` (centres unmarked) [Example 81, 8-(6-tert-butylpyridin-3-yl)-3-ethyl-6-oxo-2H,3H,4H, 6H-pyrimido [2,1-b][1,3] thiazine-7-carbonitrile], the activation at 10 µM is greater than 1000%.

As to `CCOC(=O)c1ccc(-c2nc3n(c(=O)c2C#N)CCCS3)cn1` [Example 82, ethyl 5-(7-cyano-6-oxo-3,4-dihydro-2H,6H-pyrimido[2,1-b][1,3]thiazin-8-yl)picolinate], the “NR2D Oocyte % Potentiation @ 10 uM” value is recorded as “Inhibitor”.

Consider `CC(C)(O)c1ccc(-c2nc3n(c(=O)c2C#N)CCCS3)cn1` [Example 83, 8-(6-(2-hydroxypropan-2-yl)pyridin-3-yl)-6-oxo-3,4-dihydro-2H,6H-pyrimido[2,1-b][1,3]thiazine-7-carbonitrile], for which the activation at 10 µM was in the range of 10 to 100%.

As for `CCOC(=O)c1ccc(-c2nc3n(c(=O)c2C#N)CC(C)CS3)cn1` (centres unmarked) [Example 84, ethyl 5-(7-cyano-3-methyl-6-oxo-3,4-dihydro-2H,6H-pyrimido[2,1-b][1,3]thiazin-8-yl)picolinate], the activation at 10 µM is less than 10%.

Consider `CC1CSc2nc(-c3ccc(C(C)(C)O)nc3)c(C#N)c(=O)n2C1` (centres unmarked) [Example 85, 8-(6-(2-hydroxypropan-2-yl)pyridin-3-yl)-3-methyl-6-oxo-3,4-dihydro-2H,6H-pyrimido[2,1-b][1,3]thiazine-7-carbonitrile], for which the activation at 10 µM lay in the range of 10 to 100%.

Regarding `COC(=O)C1CSc2nc(-c3ccc(C(C)(C)C)nc3)c(C#N)c(=O)n2C1` (centres unmarked) [Example 86, methyl 8-(6-(tert-butyl)pyridin-3-yl)-7-cyano-6-oxo-3,4-dihydro-2H,6H-pyrimido[2,1-b][1,3]thiazine-3-carboxylate], the activation at 10 µM was in the range of 100 to 500%.

Take `CC(C)(C)c1ccc(-c2nc3n(c(=O)c2C#N)CC(CO)CS3)cn1` (centres unmarked) [Example 87, 8-(6-(tert-butyl)pyridin-3-yl)-3-(hydroxymethyl)-6-oxo-3,4-dihydro-2H,6H-pyrimido[2,1-b][1,3]thiazine-7-carbonitrile]: the activation at 10 µM lay in the range of 500 to 1000%.

Take `CC(C)(C)c1ccc(-c2nc3n(c(=O)c2C#N)CC(CF)CS3)cn1` (centres unmarked) [Example 88, 8-(6-(tert-butyl)pyridin-3-yl)-3-(fluoromethyl)-6-oxo-3,4-dihydro-2H,6H-pyrimido[2,1-b][1,3]thiazine-7-carbonitrile]: the activation at 10 µM fell in the range of 500 to 1000%.

Regarding `COC(=O)C1CSc2nc(-c3cnc(C(C)(C)C)nc3)c(C#N)c(=O)n2C1` (centres unmarked) [Example 89, methyl 8-(2-(tert-butyl)pyrimidin-5-yl)-7-cyano-6-oxo-3,4-dihydro-2H,6H-pyrimido[2,1-b][1,3]thiazine-3-carboxylate], the activation at 10 µM is 100 to 500%.

Regarding `CC(C)(C)c1ncc(-c2nc3n(c(=O)c2C#N)CC(CO)CS3)cn1` (centres unmarked) [Example 90, 8-(2-(tert-butyl)pyrimidin-5-yl)-3-(hydroxymethyl)-6-oxo-3,4-dihydro-2H,6H-pyrimido[2,1-b][1,3]thiazine-7-carbonitrile], the activation at 10 µM was in the range of 500 to 1000%.

For the molecule `CC(C)(C)c1ncc(-c2nc3n(c(=O)c2C#N)CC(CF)CS3)cn1` (centres unmarked) [Example 91, 8-(2-(tert-butyl)pyrimidin-5-yl)-3-(fluoromethyl)-6-oxo-3,4-dihydro-2H,6H-pyrimido[2,1-b][1,3]thiazine-7-carbonitrile], the activation at 10 µM is 500 to 1000%.

Consider `CC(C)(C)c1ncc(-c2nc3n(c(=O)c2C#N)CC(CO)CS3)cc1F` (centres unmarked) [Example 92, 8-(6-(tert-butyl)-5-fluoropyridin-3-yl)-3-(hydroxymethyl)-6-oxo-3,4-dihydro-2H,6H-pyrimido[2,1-b][1,3]thiazine-7-carbonitrile], for which the activation at 10 µM was greater than 1000%.

Consider `CC1CCn2c(nc(-c3ccc(C(C)(C)C)nc3)c(C#N)c2=O)S1` (centres unmarked) [Example 93, 8-(6-(tert-butyl)pyridin-3-yl)-2-methyl-6-oxo-3,4-dihydro-2H,6H-pyrimido[2,1-b][1,3]thiazine-7-carbonitrile], for which the activation at 10 µM lay within 500 to 1000%.

As to `CN1CCCn2c1nc(-c1ccc(C(C)(C)C)nc1)c(C#N)c2=O` [Example 94, 8-(6-(tert-butyl)pyridin-3-yl)-1-methyl-6-oxo-1,3,4,6-tetrahydro-2H-pyrimido[1,2-a]pyrimidine-7-carbonitrile], the activation at 10 µM was 100 to 500%.

In the case of `C=C(C)c1ccc(-c2nc3n(c(=O)c2C#N)CCCS3)cn1` [Example 95, 6-oxo-8-(6-(prop-1-en-2-yl)pyridin-3-yl)-3,4-dihydro-2H,6H-pyrimido[2,1-b][1,3]thiazine-7-carbonitrile], the activation at 10 µM was in the range of 100 to 500%.

With `C[C@H]1CSc2cc(-c3ccc(C(C)(C)C)nc3)c(C#N)c(=O)n2C1` [Example 96, (R)-8-(6-(tert-butyl)pyridin-3-yl)-3-methyl-6-oxo-3,4-dihydro-2H,6H-pyrido[2,1-b][1,3]thiazine-7-carbonitrile], the activation at 10 µM is greater than 1000%.

For `C[C@@H]1CSc2cc(-c3ccc(C(C)(C)C)nc3)c(C#N)c(=O)n2C1` [Example 97, (S)-8-(6-(tert-butyl)pyridin-3-yl)-3-methyl-6-oxo-3,4-dihydro-2H,6H-pyrido[2,1-b][1,3]thiazine-7-carbonitrile], the activation at 10 µM is greater than 1000%.

Regarding `C[C@H]1CSc2nc(-c3cnc(C(C)(C)C)c(F)c3)c(C#N)c(=O)n2C1` [Example 98, (R)-8-(6-(tert-butyl)-5-fluoropyridin-3-yl)-3-methyl-6-oxo-3,4-dihydro-2H,6H-pyrimido[2,1-b][1,3]thiazine-7-carbonitrile], the activation at 10 µM is greater than 1000%.

For the molecule `C[C@@H]1CSc2nc(-c3cnc(C(C)(C)C)c(F)c3)c(C#N)c(=O)n2C1` [Example 99, (S)-8-(6-(tert-butyl)-5-fluoropyridin-3-yl)-3-methyl-6-oxo-3,4-dihydro-2H,6H-pyrimido[2,1-b][1,3]thiazine-7-carbonitrile], the activation at 10 µM is greater than 1000%.
